Values quoted from earlier work as cited in paper PMC8452925, “Differential Modulation of the Voltage-Gated Na^+ Channel 1.6 by Peptides Derived From Fibroblast Growth Factor 14” (Frontiers in Molecular Biosciences, 2021).

Key:
[1] = test system: FGF14^Y158A:Nav1.6 complex; conditions: 50 µM, LCA, ref Singh et al., 2020
Method: In our previous study ([Singh et al., 2020]), we pharmacologically evaluated all three tetrapeptides at a single concentration of 50 µM using the LCA. […] For example, in the FGF14^V160A condition, all three peptides lost activity, whereas in the FGF14^Y158A condition, FLPK retaine ...

MSNs of the NAc = conditions: ref Singh et al., 2020
Excerpt: (§1) To guide drug discovery efforts targeting the PPI interface between FGF14 and the CTD of Nav1.6, we previously developed and interrogated a homology model of the PPI interface to identify putative clusters of amino acids central to assembly of the complex ([Ali et al., 2014], [2016]). These investigations identified the Phe-Leu-Pro-Lys (FLPK) and Pro-Leu-Glu-Val (PLEV) motifs on the β12 sheet of FGF14, and the Glu-Tyr-Tyr-Val (EYYV) motif on the β8-β9 loop of FGF14, as being putatively essential for FGF14:Nav1.6 complex assembly ([Ali et al., 2014], [2016]). To investigate if short peptides de ...

[2] = test system: human Nav1.6 with FGF14-GFP; conditions: ref Singh et al., 2020
Excerpt: as §1

FGF14:Nav1.6 complex = target: T1, FGF14:Nav1.6 complex (Homo sapiens, UniProt Q92915); conditions: ref Singh et al., 2020
T1 construct: expressed in transfected cells
T1 sequence (Q92915 1-252 isoform Q92915-2): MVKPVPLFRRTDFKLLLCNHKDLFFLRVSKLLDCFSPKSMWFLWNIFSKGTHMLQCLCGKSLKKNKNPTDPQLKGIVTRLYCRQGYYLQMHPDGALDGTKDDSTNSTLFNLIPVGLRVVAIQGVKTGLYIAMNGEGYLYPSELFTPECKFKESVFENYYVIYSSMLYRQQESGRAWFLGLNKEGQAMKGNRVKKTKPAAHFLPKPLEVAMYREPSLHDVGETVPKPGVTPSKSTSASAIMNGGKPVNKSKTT
Excerpt: as §1

Phe-Leu-Pro-Lys [FLPK, tetrapeptide from the β12 sheet of FGF14, previously evaluated (Singh et al., 2020)]
Effect on complex assembly with FGF14^Y158A (in words) [1]: retained its inhibitory effects on FGF14:Nav1.6 complex assembly
Effect on neuronal excitability (in words) (MSNs of the NAc): affected neuronal excitability of MSNs of the NAc
Effect on FGF14-mediated regulation of Nav1.6 channel activity (in words) [2]: reversed FGF14-mediated regulatory effects on Nav1.6 channel activity
Effect on FGF14:Nav1.6 complex assembly (in words) (FGF14:Nav1.6 complex): inhibited FGF14:Nav1.6 complex assembly
